Source: EPA's ToxValDB 9.5

System: Mus musculus
Details: oral
[1] = short-term, duration: 21 days, gavage, M, BALB/c, spleen: lymphocyte proliferation (ConA)
[2] = short-term, duration: 21 days, gavage, M, BALB/c, spleen: spleen CD3+ cells + spleen: spleen CD3+CD4+ cells + spleen: spleen CD3+CD8+ cells + spleen: spleen: relative weight
[3] = short-term, duration: 28 days, gavage, F, B6C3F1, IgM antibody-producing cells (SRBC)
[4] = short-term, duration: 28 days, gavage, F, B6C3F1, peritoneal cavity: IL-6 levels (+LPS in vivo) + peritoneal cavity: TNF-alpha levels (+LPS in vitro) + spleen: spleen: relative weight
[5] = short-term, duration: 28 days, gavage, F, B6C3F1, serum lysozyme activity + spleen: splenic CD4-/CD8+ + spleen: splenic CD4+/CD8-
[6] = short-term, duration: 28 days, gavage, F, B6C3F1, spleen (B cells): IL-6 levels (+LPS)
[7] = short-term, duration: 28 days, gavage, F, B6C3F1, thymus: thymic CD4+/CD8+
[8] = short-term, duration: 28 days, gavage, M, B6C3F1, IgM antibody-producing cells (SRBC)
[9] = short-term, duration: 28 days, gavage, M, B6C3F1, spleen: Splenic NK cell activity
[10] = short-term, duration: 28 days, gavage, M, B6C3F1, spleen: splenic CD4-/CD8- + spleen: splenic CD4-/CD8+ + spleen: splenic CD4+/CD8- + spleen: splenic CD4+/CD8+
[11] = subchronic, duration: 30 days, gavage, M, C57BL/6, spleen: spleen: relative weight
[12] = subchronic, duration: 60 days, gavage, M, C57BL/6, % of sub G1 population (splenocytes) + spleen: apoptotic cells (splenocytes) + spleen: viability in murine splenocytes + thymus: apoptotic …
[13] = subchronic, duration: 60 days, gavage, M, C57BL/6, % of sub G1 population (thymocytes) + body weight change + spleen: necrotic cells (splenocytes) + spleen: spleen cellularity + spleen: …
[14] = subchronic, duration: 60 days, gavage, M, C57BL/6, IgM antibody titer (SRBC) + spleen: IL-4 levels
[15] = subchronic, duration: 60 days, gavage, M, C57BL/6, blood serum: IL-1 beta (+LPS in vivo) + blood serum: IL-1 beta levels + blood serum: IL-6 levels + peritoneal cavity: IL-1 beta levels (+LPS…
[16] = subchronic, duration: 60 days, gavage, M, C57BL/6, blood serum: IL-6 levels (+LPS in vivo) + blood serum: TNF-alpha levels (+LPS in vivo) + peritoneal cavity: IL-6 levels (+LPS in vivo) + …
[17] = subchronic, duration: 60 days, gavage, M, C57BL/6, body weight change + food intake from day 60 to 61 + IgE antibody titer (SRBC) + IgG antibody titer (SRBC) + IgG1 antibody titer (SRBC) + …
[18] = subchronic, duration: 60 days, gavage, M, C57BL/6, body weight change + peritoneal cavity: IL-6 levels + peritoneal cavity: IL-6 levels (+LPS in vitro) + peritoneal cavity: TNF-alpha levels…
[19] = subchronic, duration: 60 days, gavage, M, C57BL/6, liver: liver index
[20] = subchronic, duration: 60 days, gavage, M, C57BL/6, peritoneal cavity: IL-1 beta levels
[21] = subchronic, duration: 60 days, gavage, M, C57BL/6, serum corticosterone + spleen: lymphocyte proliferation (LPS) + spleen: spleen B220+ Cells + spleen: spleen CD8+ cells + thymus: thymus CD4…
[22] = subchronic, duration: 60 days, gavage, M, C57BL/6, spleen: lymphocyte proliferation (ConA) + thymus: thymus DN (CD4-/CD8-)

O=S(=O)(O)C(F)(F)C(F)(F)C(F)(F)C(F)(F)C(F)(F)C(F)(F)C(F)(F)C(F)(F)F [Perfluorooctanesulfonic acid]
LOEL (short-term, duration: 21 days, gavage, F, B6C3F1, body weight during influenza A infection (day 30, 9 days after infection)): 0.005 mg/kg-day | LOEL [1]: 5 mg/kg-day | NOEL [1]: 2.5 mg/kg-day | LOEL (short-term, duration: 21 days, gavage, M, BALB/c, spleen: spleen CD3+ cells (cells normalized to control) + spleen: spleen CD3+CD4+ cells (cells normalized to control) + spleen: spleen CD3+…): 2.5 mg/kg-day | NOEL (short-term, duration: 21 days, gavage, M, BALB/c, spleen: spleen CD3+ cells + spleen: spleen CD3+CD4+ cells (cells normalized to control) + spleen: spleen CD3+CD8+ cells (cells normalized to…): 10 mg/kg-day | LOEL [2]: 10 mg/kg-day | NOEL [2]: 5 mg/kg-day | LOEL (short-term, duration: 28 days, diet, M, B6C3F1, corticosterone): 0.000156% | NOEL (short-term, duration: 28 days, diet, M, B6C3F1, haemagglutination + IgG antibody level (SRBC 1:200) + IgM antibody-secreting cells (SRBC) + IgM antibody level (SRBC 1:200) + IgM antibody …): 0.000156% | NOEL (short-term, duration: 28 days, diet, M, C57BL/6, liver: IFN-gamma levels + liver: IFN-gamma levels (+Con A in vivo) + liver: IL-4 levels (+Con A in vivo) + liver: TNF-alpha levels + liver: …): 0.0001% | NOEL (short-term, duration: 28 days, gavage, F, B6C3F1, IL-4 levels (+PMA) + spleen (CD4+ T cells): IL-5 levels (+PMA) + spleen (CD4+ T cells): IL-6 levels (+anti-CD3) + spleen (CD4+ T cells): IL-…): 0.0331 mg/kg-day | LOEL (TAD) [3]: 0.5 mg/kg-day | NOEL (TAD) [3]: 0.1 mg/kg-day | LOEL (short-term, duration: 28 days, gavage, F, B6C3F1, blood serum: IL-6 levels (+LPS in vivo) + blood serum: TNF-alpha levels (+LPS in vivo)): 0.0331 mg/kg-day | NOEL (short-term, duration: 28 days, gavage, F, B6C3F1, eosinophils + lymphocytes + monocytes + neutrophils + platelet count + RBC + spleen: cells expressing CD19-/CD21+ + spleen: cells expressing…): 0.166 mg/kg-day | NOEL (short-term, duration: 28 days, gavage, F, B6C3F1, peritoneal cavity: IL-6 levels (+LPS in vitro) + peritoneal cavity: IL-6 levels (+LPS in vivo) + peritoneal cavity: TNF-alpha levels (+LPS …): 9.93 mg/kg-day | LOEL [4]: 9.93 mg/kg-day | NOEL [4]: 0.0993 mg/kg-day | LOEL (TAD) [5]: 0.1 mg/kg-day | NOEL (TAD) [5]: 0.05 mg/kg-day | LOEL [6]: 0.0331 mg/kg-day | NOEL [6]: 0.00331 mg/kg-day | LOEL (short-term, duration: 28 days, gavage, F, B6C3F1, spleen (B cells): IL-6 levels (+anti-CD40)): 0.00331 mg/kg-day | NOEL (short-term, duration: 28 days, gavage, F, B6C3F1, spleen: IL-6 secreting cells (# splenocytes)): 0.0331 mg/kg-day | LOEL (short-term, duration: 28 days, gavage, F, B6C3F1, spleen: IL-6 secreting cells (# splenocytes) + spleen: IL-6 secreting cells (% splenocytes)): 0.0993 mg/kg-day | NOEL (TAD) (short-term, duration: 28 days, gavage, F, B6C3F1, spleen: lymphocyte proliferation (ConA) + spleen: lymphocyte proliferation (LPS) + spleen: spleen cellularity + spleen: spleen: relative …): 5 mg/kg-day | LOEL (TAD) [7]: 1 mg/kg-day | NOEL (TAD) [7]: 0.5 mg/kg-day | LOEL (TAD) [8]: 0.05 mg/kg-day | NOEL (TAD) [8]: 0.005 mg/kg-day | NOEL (TAD) (short-term, duration: 28 days, gavage, M, B6C3F1, serum lysozyme activity + spleen: lymphocyte proliferation (ConA) + spleen: lymphocyte proliferation (LPS) + spleen: spleen cellularity + …): 5 mg/kg-day | LOEL (TAD) [9]: 0.5 mg/kg-day | NOEL (TAD) [9]: 0.1 mg/kg-day | LOEL (TAD) [10]: 0.1 mg/kg-day | NOEL (TAD) [10]: 0.05 mg/kg-day | LOEL (TAD) [11]: 300 mg/kg-day | NOEL (TAD) [11]: 150 mg/kg-day | LOEL [12]: 0.0833 mg/kg-day | NOEL [12]: 0.0167 mg/kg-day | LOEL [13]: 0.833 mg/kg-day | NOEL [13]: 0.0833 mg/kg-day | NOEL (subchronic, duration: 60 days, gavage, M, C57BL/6, DTH response + IgG2a antibody titer (SRBC) + kidney: kidney index + serum corticosterone): 0.833 mg/kg-day | LOEL [14]: 0.0833 mg/kg-day | NOEL [14]: 0.0167 mg/kg-day | LOEL (subchronic, duration: 60 days, gavage, M, C57BL/6, IgM antibody-secreting cells (SRBC) + Splenic NK cell activity): 0.0833 mg/kg-day | NOEL (subchronic, duration: 60 days, gavage, M, C57BL/6, IgM antibody-secreting cells (SRBC) + spleen: spleen DP (CD4+/CD8+) + Splenic NK cell activity): 0.00833 mg/kg-day | LOEL [15]: 0.833 mg/kg-day | NOEL [15]: 0.417 mg/kg-day | LOEL [16]: 2.08 mg/kg-day | NOEL [16]: 0.833 mg/kg-day | NOEL (subchronic, duration: 60 days, gavage, M, C57BL/6, blood serum: TNF-alpha levels): 2.08 mg/kg-day | LOEL [17]: 0.833 mg/kg-day | NOEL [17]: 0.417 mg/kg-day | LOEL [18]: 0.417 mg/kg-day | NOEL [18]: 0.0833 mg/kg-day | LOEL [19]: 0.417 mg/kg-day | NOEL [19]: 0.0833 mg/kg-day | LOEL (subchronic, duration: 60 days, gavage, M, C57BL/6, peritoneal cavity macrophages): 0.0167 mg/kg-day | NOEL (subchronic, duration: 60 days, gavage, M, C57BL/6, peritoneal cavity macrophages + spleen: IL-1 beta mRNA): 0.0083 mg/kg-day | LOEL [20]: 0.0833 mg/kg-day | NOEL [20]: 0.0167 mg/kg-day | LOEL [21]: 0.833 mg/kg-day | NOEL [21]: 0.417 mg/kg-day | LOEL [22]: 2.08 mg/kg-day | NOEL [22]: 0.833 mg/kg-day | LOEL (subchronic, duration: 60 days, gavage, M, C57BL/6, spleen: spleen CD4+ cells + spleen: spleen cellularity + spleen: spleen DN (CD4-/CD8-) + spleen: spleen DP (CD4+/CD8+) + spleen: spleen: …): 0.417 mg/kg-day | NOEL (subchronic, duration: 60 days, gavage, M, C57BL/6, spleen: spleen CD4+ cells + spleen: spleen cellularity + spleen: spleen DN (CD4-/CD8-) + spleen: spleen: relative weight + thymus: thymus …): 0.0833 mg/kg-day
